Experimental data published in article PMC5659721 (Journal of medicinal chemistry, 2017).

Experiments:
TTR = TTR (Homo sapiens, UniProt P02766); assay: Reversibility of binding assessed with mass spectrometry; details: mass spectrometry (Figure S3)
wild-type TTR [1] = target: T1, wild-type TTR (Homo sapiens, UniProt P02766); assay: Co-crystallography / X-ray diffraction analysis of TTR·ligand complexes; details: co-crystal structures
wild-type TTR [2] = target: T1, wild-type TTR; assay: Competitive fluorescence; assay type: binding; details: 5 vs 1, 6 vs 2
wild-type TTR [3] = target: T1, wild-type TTR; details: orientation in T4-binding site; cited from earlier work

covalent interaction / boronic ester formation with binding-pocket residues (wild-type TTR [1])	SMILES	also measured
	OB(O)c1ccc(/C=C/c2ccc(B(O)O)cc2Cl)c(Cl)c1 [Compound 10, 1,1′-(1E)-(1,2-Ethenediyl)bis[2-chloro-4-boronic acid]-benzene]	reversibility of binding with TTR (TTR): reversible
did not exhibit covalent interactions	O=C(O)c1cccc(/C=C/c2ccc(B(O)O)cc2)c1 [Compound 6, 3-[(1E)-2-(4-Boronic acid)ethenyl]-benzoic Acid]	Kd,2 fold higher than those of stilbenes 1 and 2, respectively (wild-type TTR [2]): 2 fold
	O=C(O)c1ccc2nc(-c3cc(Cl)cc(Cl)c3)oc2c1 [Compound 12, 2-(3,5-dichlorophenyl)-6-benzoxazolecarboxylic acid]	binding mode (wild-type TTR [3]): forward ^d
did not exhibit covalent interactions	OB(O)c1ccc(/C=C/c2cc(O)cc(O)c2)cc1 [Compound 2, 5-[(1E)-2-(4-Boronic acid)ethenyl]-1,3-benzenediol]	
did not exhibit covalent interactions	O=C(O)c1cccc(/C=C/c2ccc(B(O)O)cc2Cl)c1 [Compound 8, 3-[(1E)-2-(2-Chloro-4-boronic Acid)ethenyl]-benzoic]	
did not exhibit covalent interactions	OB(O)c1ccc(/C=C/c2cc(O)cc(O)c2)c(Cl)c1 [Compound 4, 5-[(1E)-2-(2-Chloro-4-boronic Acid)ethenyl]-1,3-benzenediol]	
	O=C(O)c1cccc(/C=C/c2ccc(O)cc2)c1 [Compound 5, 3-[(1E)-2-(4-Hydroxyphenyl)ethenyl]-benzoic Acid]	Kd,2 fold higher than those of stilbenes 1 and 2, respectively (wild-type TTR [2]): 3 fold
